# PubChem BioAssay (NCI)
#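 Five concentrations, 48 hours, 96-well plates. Definition used: TGI = concentration required for complete inhibition of growth.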
# Legend:
# Experiment in all cases: NCI anticancer screen, dose series, 48 h
# UACC-62 melanoma = test system: UACC-62 melanoma
# HCT-116 colon = test system: HCT-116 colon
# OVCAR-5 ovarian = test system: OVCAR-5 ovarian
# RPMI-8226 leukemia = test system: RPMI-8226 leukemia
# OVCAR-4 ovarian = test system: OVCAR-4 ovarian
# PC-3 prostate = test system: PC-3 prostate
# UACC-257 melanoma = test system: UACC-257 melanoma
# OVCAR-8 ovarian = test system: OVCAR-8 ovarian
# MCF7 breast = test system: MCF7 breast
# TK-10 renal = test system: TK-10 renal
# SR leukemia = test system: SR leukemia
# KM12 colon = test system: KM12 colon
# SF-295 CNS = test system: SF-295 CNS
# SK-MEL-5 melanoma = test system: SK-MEL-5 melanoma
# K-562 leukemia = test system: K-562 leukemia
# OVCAR-3 ovarian = test system: OVCAR-3 ovarian
# U251 CNS = test system: U251 CNS
# BT-549 breast = test system: BT-549 breast
# NCI-H460 lung = test system: NCI-H460 lung
# NCI-H522 lung = test system: NCI-H522 lung
# CAKI-1 renal = test system: CAKI-1 renal
# SW-620 colon = test system: SW-620 colon
# A498 renal = test system: A498 renal
# CCRF-CEM leukemia = test system: CCRF-CEM leukemia
# MOLT-4 leukemia = test system: MOLT-4 leukemia
# DU-145 prostate = test system: DU-145 prostate
# SNB-75 CNS = test system: SNB-75 CNS
# 786-0 renal = test system: 786-0 renal
# NCI/ADR-RES ovarian = test system: NCI/ADR-RES ovarian
# MDA-MB-231 breast = test system: MDA-MB-231 breast
# SK-OV-3 ovarian = test system: SK-OV-3 ovarian
# IGROV1 ovarian = test system: IGROV1 ovarian
# HS 578T breast = test system: HS 578T breast
# HOP-62 NSCLC = test system: HOP-62 NSCLC
# NCI-H226 lung = test system: NCI-H226 lung
# SF-268 CNS = test system: SF-268 CNS
# SN12C renal = test system: SN12C renal
# A549 NSCLC = test system: A549 NSCLC
# SK-MEL-2 melanoma = test system: SK-MEL-2 melanoma
# M14 melanoma = test system: M14 melanoma
# NCI-H23 lung = test system: NCI-H23 lung
# RXF 393 renal = test system: RXF 393 renal
# SF-539 CNS = test system: SF-539 CNS
# MALME-3M melanoma = test system: MALME-3M melanoma
# UO-31 renal = test system: UO-31 renal
# COLO 205 colon = test system: COLO 205 colon
# T-47D breast = test system: T-47D breast
# HCC-2998 colon = test system: HCC-2998 colon
# HCT-15 colon = test system: HCT-15 colon
# HOP-92 NSCLC = test system: HOP-92 NSCLC
# HT29 colon = test system: HT29 colon
# MDA-MB-435 = test system: MDA-MB-435
# ACHN renal = test system: ACHN renal
# SK-MEL-28 melanoma = test system: SK-MEL-28 melanoma
# EKVX NSCLC = test system: EKVX NSCLC
# HL-60(TB) leukemia = test system: HL-60(TB) leukemia
# SNB-19 CNS = test system: SNB-19 CNS
smiles,measurement,setting,value
COc1ccc2c(c1)-c1c(c3cc(OC)ccc3n1CCN1CCOCC1)CC2,TGI,UACC-62 melanoma,52.6 µM
same,TGI,HCT-116 colon,> 100 µM
same,TGI,OVCAR-5 ovarian,> 100 µM
same,TGI,RPMI-8226 leukemia,85.5 µM
same,TGI,OVCAR-4 ovarian,> 100 µM
same,TGI,PC-3 prostate,> 100 µM
same,TGI,UACC-257 melanoma,> 100 µM
same,TGI,OVCAR-8 ovarian,> 100 µM
same,TGI,MCF7 breast,> 100 µM
same,TGI,TK-10 renal,> 100 µM
same,TGI,SR leukemia,22 µM
same,TGI,KM12 colon,> 100 µM
same,TGI,SF-295 CNS,55.2 µM
same,TGI,SK-MEL-5 melanoma,79.5 µM
same,TGI,K-562 leukemia,36.2 µM
same,TGI,OVCAR-3 ovarian,> 100 µM
same,TGI,U251 CNS,> 100 µM
same,TGI,BT-549 breast,> 100 µM
same,TGI,NCI-H460 lung,> 100 µM
same,TGI,NCI-H522 lung,> 100 µM
same,TGI,CAKI-1 renal,> 100 µM
same,TGI,SW-620 colon,> 100 µM
same,TGI,A498 renal,> 100 µM
same,TGI,CCRF-CEM leukemia,35.6 µM
same,TGI,MOLT-4 leukemia,33.6 µM
same,TGI,DU-145 prostate,> 100 µM
same,TGI,SNB-75 CNS,> 100 µM
same,TGI,786-0 renal,42.5 µM
same,TGI,NCI/ADR-RES ovarian,98.4 µM
same,TGI,MDA-MB-231 breast,> 100 µM
same,TGI,SK-OV-3 ovarian,> 100 µM
same,TGI,IGROV1 ovarian,> 100 µM
same,TGI,HS 578T breast,39.9 µM
same,TGI,HOP-62 NSCLC,> 100 µM
same,TGI,NCI-H226 lung,30.6 µM
same,TGI,SF-268 CNS,> 100 µM
same,TGI,SN12C renal,> 100 µM
same,TGI,A549 NSCLC,> 100 µM
same,TGI,SK-MEL-2 melanoma,> 100 µM
same,TGI,M14 melanoma,35 µM
same,TGI,NCI-H23 lung,> 100 µM
same,TGI,RXF 393 renal,98 µM
same,TGI,SF-539 CNS,93.6 µM
same,TGI,MALME-3M melanoma,79.2 µM
same,TGI,UO-31 renal,> 100 µM
same,TGI,COLO 205 colon,37.3 µM
same,TGI,T-47D breast,> 100 µM
same,TGI,HCC-2998 colon,18.5 µM
same,TGI,HCT-15 colon,39.4 µM
same,TGI,HOP-92 NSCLC,> 100 µM
same,TGI,HT29 colon,28.1 µM
same,TGI,MDA-MB-435,> 100 µM
same,TGI,ACHN renal,> 100 µM
same,TGI,SK-MEL-28 melanoma,> 100 µM
O=[N+]([O-])c1ccc(-c2nc(/C=N/N3CCCCC3)cs2)o1,TGI,UACC-62 melanoma,> 100 µM
same,TGI,HCT-116 colon,> 100 µM
same,TGI,OVCAR-5 ovarian,> 100 µM
same,TGI,RPMI-8226 leukemia,39.8 µM
same,TGI,OVCAR-4 ovarian,> 100 µM
same,TGI,PC-3 prostate,> 100 µM
same,TGI,UACC-257 melanoma,50.7 µM
same,TGI,OVCAR-8 ovarian,> 100 µM
same,TGI,EKVX NSCLC,> 100 µM
same,TGI,MCF7 breast,> 100 µM
same,TGI,TK-10 renal,> 100 µM
same,TGI,SR leukemia,73 µM
same,TGI,KM12 colon,> 100 µM
same,TGI,SF-295 CNS,> 100 µM
same,TGI,SK-MEL-5 melanoma,59.5 µM
same,TGI,K-562 leukemia,> 100 µM
same,TGI,OVCAR-3 ovarian,82.4 µM
same,TGI,U251 CNS,> 100 µM
same,TGI,BT-549 breast,> 100 µM
same,TGI,NCI-H460 lung,> 100 µM
same,TGI,NCI-H522 lung,> 100 µM
same,TGI,CAKI-1 renal,> 100 µM
same,TGI,SW-620 colon,> 100 µM
same,TGI,MOLT-4 leukemia,67 µM
same,TGI,DU-145 prostate,> 100 µM
same,TGI,SNB-75 CNS,> 100 µM
same,TGI,786-0 renal,> 100 µM
same,TGI,NCI/ADR-RES ovarian,> 100 µM
same,TGI,MDA-MB-231 breast,> 100 µM
same,TGI,SK-OV-3 ovarian,> 100 µM
same,TGI,IGROV1 ovarian,> 100 µM
same,TGI,HS 578T breast,> 100 µM
same,TGI,HOP-62 NSCLC,> 100 µM
same,TGI,HL-60(TB) leukemia,> 100 µM
same,TGI,NCI-H226 lung,> 100 µM
same,TGI,SF-268 CNS,> 100 µM
same,TGI,SN12C renal,68.1 µM
same,TGI,A549 NSCLC,> 100 µM
same,TGI,SK-MEL-2 melanoma,> 100 µM
same,TGI,M14 melanoma,> 100 µM
same,TGI,NCI-H23 lung,> 100 µM
same,TGI,RXF 393 renal,> 100 µM
same,TGI,SF-539 CNS,> 100 µM
same,TGI,MALME-3M melanoma,76.6 µM
same,TGI,UO-31 renal,> 100 µM
same,TGI,COLO 205 colon,> 100 µM
same,TGI,SNB-19 CNS,> 100 µM
same,TGI,T-47D breast,> 100 µM
same,TGI,HCT-15 colon,> 100 µM
same,TGI,HOP-92 NSCLC,> 100 µM
same,TGI,HT29 colon,57.1 µM
same,TGI,MDA-MB-435,62.6 µM
same,TGI,ACHN renal,> 100 µM
same,TGI,SK-MEL-28 melanoma,> 100 µM
